Entries after “also recorded” stand apart in the source; their conditions may differ. Where two headings read alike, the source gives them in different places.
Columns and labels:
[1] = tested on: A375 (B-Raf^V600E) malignant melanoma cells; test: Anti-proliferation activity, A375 melanoma cells; assay type: cell-based, human; settings: for inhibition at 10 µM: Homo sapiens, A-375, read-out: Tumor growth inhibition rate A375(B-Raf^V600E); for Tumor growth inhibition rate A375(B-Raf^V600E): [I]=10μM
B-Raf^V600E = B-Raf^V600E (Homo sapiens, UniProt P15056, V600E); test: In vitro B-Raf kinase assay; assay type: biochemical; settings: for Inhibition rate B-Raf^V600E: [I]=1μM
B-Raf^WT = B-Raf^WT (Homo sapiens, UniProt P15056); test: In vitro B-Raf kinase assay; assay type: biochemical; settings: for inhibition at 2 µM: read-out: Inhibition rate (%) B-Raf; for Inhibition rate (%) B-Raf: 2μM of compound; for Inhibition rate B-Raf: [I]=1μM
[2] = tested on: SW620 (B-Raf^WT) human colonic carcinoma cells; test: Anti-proliferation activity, SW620 cells; assay type: cell-based; settings: SW-620, read-out: Tumor growth inhibition rate SW620 (B-Raf)
[3] = read-out: Inhibition rate (%) B-Raf^V600E, 0.5μM of compound
[4] = read-out: Inhibition rate (%) B-Raf^V600E, 2μM of compound
[5] = read-out: Inhibition rate (%) B-Raf^V600E

B-Raf^WT, sequence (P15056 433-726): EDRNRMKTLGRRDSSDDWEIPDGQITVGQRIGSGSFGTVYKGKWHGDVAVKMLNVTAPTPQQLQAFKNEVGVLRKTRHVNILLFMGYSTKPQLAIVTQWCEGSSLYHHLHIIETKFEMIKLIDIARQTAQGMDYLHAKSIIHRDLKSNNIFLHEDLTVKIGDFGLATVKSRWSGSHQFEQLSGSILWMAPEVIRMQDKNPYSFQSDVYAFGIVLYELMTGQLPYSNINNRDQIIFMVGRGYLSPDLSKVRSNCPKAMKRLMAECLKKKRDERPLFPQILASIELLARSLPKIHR
B-Raf^V600E, sequence (P15056 433-726 V600E): as the sequence (P15056 433-726) above, with V168E counted along it

O=C1C(=Cc2ccc(-c3ccccc3[N+](=O)[O-])o2)Cc2ccccc21 [Compound 16a, 2-[5-(2-nitro-phenyl)-furan-2-ylmethylene]-indan-1-one]
inhibition at 10 µM [1]: 16.5%
inhibition at 0.5 µM (B-Raf^V600E; [3]): 47%
inhibition at 2 µM (B-Raf^V600E; [4]): > 50%
inhibition at 2 µM (B-Raf^WT): 11%

O=C1C(=Cc2ccc(-c3cccc(C(F)(F)F)c3)o2)Cc2ccccc21 [Compound 16b, 2-[5-(3-trifluomethyl-phenyl)-furan-2-ylmethylene]-indan-1-one]
Inhibition rate (%) B-Raf^V600E (B-Raf^V600E; 2μM of compound): 22% n.d.

O=C1C(=Cc2ccc(-c3cccc(C(F)(F)F)c3)o2)Cc2cc(Cl)ccc21 [Compound 16c, 2-[5-(3-trifluomethyl-phenyl)-furan-2-ylmethylene]-5-chloro-indan-1-one]
Tumor growth inhibition rate A375(B-Raf^V600E) [1]: 3.2
Inhibition rate (%) B-Raf^V600E (B-Raf^V600E; 0.5μM of compound): 42%

O=C1C(=Cc2ccc(-c3ccc([N+](=O)[O-])cc3)o2)Cc2ccccc21 [Compound 16d, 2-[5-(4-nitro-phenyl)-furan-2-ylmethylene]-indan-1-one]
inhibition at 2 µM (B-Raf^V600E; [4]): 34%

O=C1C(=Cc2ccc(-c3ccc(Cl)cc3)o2)Cc2ccccc21 [Compound 16e, 2-[5-(4-chloro-phenyl)-furan-2-ylmethylene]-indan-1-one]
inhibition at 10 µM [1]: 5.2%
inhibition at 0.5 µM (B-Raf^V600E; [3]): 41%
inhibition at 2 µM (B-Raf^V600E; [4]): > 50%

O=C1C(=Cc2ccc(-c3ccc(Br)cc3)o2)Cc2ccccc21 [Compound 16f, 2-[5-(4-bromo-phenyl)-furan-2-ylmethylene]-indan-1-one]
inhibition at 2 µM (B-Raf^V600E; [4]): 42%

O=C1C(=Cc2ccc(-c3cc(C(F)(F)F)ccc3Cl)o2)Cc2ccccc21 [Compound 16g, 2-[5-(2-chloro-5-trifluomethyl)-furan-2-ylmethylene]-indan-1-one]
Inhibition rate (%) B-Raf^V600E (B-Raf^V600E; 2μM of compound): 44% n.d.

O=C1Nc2ccccc2C1=Cc1ccc(-c2cccc(C(F)(F)F)c2)o1 [Compound 17a, 3-[5-(3-trifluomethyl-phenyl)-furan-2-ylmethylene]-1,3-dihydro-indol-2-one]
Inhibition rate (%) B-Raf^V600E (B-Raf^V600E; 2μM of compound): 34% n.d.

O=C1Nc2cc(Cl)ccc2C1=Cc1ccc(-c2cccc(C(F)(F)F)c2)o1 [Compound 17b, 3-[5-(3-trifluomethyl-phenyl)-furan-2-ylmethylene]-6-chloro-1,3-dihydro-indol-2-one]
Inhibition rate (%) B-Raf^V600E (B-Raf^V600E; 2μM of compound): 38% n.d.

O=C1Nc2ccc(Cl)cc2C1=Cc1ccc(-c2cccc(C(F)(F)F)c2)o1 [Compound 17c, 3-[5-(3-trifluomethyl-phenyl)-furan-2-ylmethylene]-5-chloro-1,3-dihydro-indol-2-one]
Inhibition rate (%) B-Raf^V600E (B-Raf^V600E; 2μM of compound): 23% n.d.
Inhibition rate (%) B-Raf (B-Raf^WT): 17% n.d.

O=C1Nc2ccccc2C1=Cc1ccc(-c2cc(C(F)(F)F)ccc2Cl)o1 [Compound 17d, 3-[5-(2-chloro-5-trifluomethyl)-furan-2-ylmethylene]-1,3-dihydro-indol-2-one]
Inhibition rate (%) B-Raf^V600E (B-Raf^V600E; 2μM of compound): 23% n.d.

O=C1Nc2ccc(Cl)cc2C1=Cc1ccc(-c2cc(C(F)(F)F)ccc2Cl)o1 [Compound 17e, 3-[5-(2-chloro-5-trifluomethyl)-furan-2-ylmethylene]-5-chloro-1,3-dihydro-indol-2-one]
Inhibition rate (%) B-Raf^V600E (B-Raf^V600E; 2μM of compound): 34% n.d.

O=C1Nc2cc(Cl)ccc2C1=Cc1ccc(-c2cc(C(F)(F)F)ccc2Cl)o1 [Compound 17f, 3-[5-(2-chloro-5-trifluomethyl)-furan-2-ylmethylene]-6-chloro-1,3-dihydro-indol-2-one]
Inhibition rate (%) B-Raf^V600E (B-Raf^V600E; 2μM of compound): 34% n.d.

O=C1NC(=O)C(=Cc2ccc(-c3ccccc3[N+](=O)[O-])o2)S1 [Compound 19a, 5-[5-(2-nitro-phenyl)-furan-2ylmethylene]-thiazolidine-2,4-dione]
inhibition at 2 µM (B-Raf^V600E; [4]): 7%

COc1cccc(-c2ccc(C=C3SC(=O)NC3=O)o2)c1 [Compound 19b, 5-[5-(3-methoxy-phenyl)-furan-2ylmethylene]-thiazolidine-2,4-dione]
inhibition at 2 µM (B-Raf^V600E; [4]): 34%

O=C1NC(=O)C(=Cc2ccc(-c3ccc([N+](=O)[O-])cc3)o2)S1 [Compound 19c, 5-[5-(4-nitro-phenyl)-furan-2ylmethylene]-thiazolidine-2,4-dione]
inhibition at 2 µM (B-Raf^V600E; [4]): 48%

Cc1ccc(-c2ccc(C=C3SC(=O)NC3=O)o2)cc1 [Compound 19g, 5-[5-(4-methyl-phenyl)-furan-2ylmethylene]-thiazolidine-2,4-dione]
inhibition at 2 µM (B-Raf^V600E; [4]): 41%

COc1ccc(-c2ccc(C=C3SC(=O)NC3=O)o2)cc1 [Compound 19h, 5-[5-(4-methoxy-phenyl)-furan-2ylmethylene]-thiazolidine-2,4-dione]
inhibition at 2 µM (B-Raf^V600E; [4]): 41%
inhibition at 2 µM (B-Raf^WT): 3%

CC(C)(C)c1ccc(-c2ccc(C=C3SC(=O)NC3=O)o2)cc1 [Compound 19i, 5-[5-(4-tert-butyl-phenyl)-furan-2ylmethylene]-thiazolidine-2,4-dione]
inhibition at 2 µM (B-Raf^V600E; [4]): 34%
inhibition at 2 µM (B-Raf^WT): 17%

O=C1NC(=O)C(=Cc2ccc(-c3ccc4ccccc4c3)o2)S1 [Compound 19j, 5-[5-(2-naphthyl)-furan-2ylmethylene]-thiazolidine-2,4-dione]
inhibition at 2 µM (B-Raf^V600E; [4]): 51%

O=C1NC(=O)C(=Cc2ccc(-c3cc(C(F)(F)F)ccc3Cl)o2)S1 [Compound 19k, 5-[5-(2-chloro-5-trifluomethyl)-furan-2ylmethylene]-thiazolidine-2,4-dione]
Inhibition rate (%) B-Raf^V600E (B-Raf^V600E; 2μM of compound): 37% n.d.
Inhibition rate (%) B-Raf (B-Raf^WT): 18% n.d.

O=C1NC(=S)NC(=O)C1=Cc1ccc(-c2ccccc2[N+](=O)[O-])o1 [Compound 22a, 5-[5-(2-nitro-phenyl)-furan-2ylmethylene]-2-thioxo-dihydro-pyrimidine-4,6-dione]
inhibition at 0.5 µM (B-Raf^V600E; [5]): 48%
inhibition at 2 µM (B-Raf^V600E; [5]): 61%
inhibition at 2 µM (B-Raf^WT): 38%

COc1cccc(-c2ccc(C=C3C(=O)NC(=S)NC3=O)o2)c1 [Compound 22b, 5-[5-(3-methoxy-phenyl)-furan-2ylmethylene]-2-thioxo-dihydro-pyrimidine-4,6-dione]
inhibition at 10 µM [1]: 26.2%
inhibition at 0.5 µM (B-Raf^V600E; [5]): 34%
inhibition at 2 µM (B-Raf^V600E; [5]): 63%
inhibition at 2 µM (B-Raf^WT): 6%

O=C1NC(=S)NC(=O)C1=Cc1ccc(-c2ccc([N+](=O)[O-])cc2)o1 [Compound 22c, 5-[5-(4-nitro-phenyl)-furan-2ylmethylene]-2-thioxo-dihydro-pyrimidine-4,6-dione]
inhibition at 10 µM [1]: 46.3%
inhibition at 2 µM (B-Raf^V600E; [5]): 59%
inhibition at 2 µM (B-Raf^WT): 55%

O=C1NC(=S)NC(=O)C1=Cc1ccc(-c2ccc(Cl)cc2)o1 [Compound 22e, 5-[5-(4-chloro-phenyl)-furan-2ylmethylene]-2-thioxo-dihydro-pyrimidine-4,6-dione]
inhibition at 10 µM [1]: 82.9%
Tumor growth inhibition rate A375(B-Raf^V600E) [1]: potent growth inhibition activity
inhibition at 0.5 µM (B-Raf^V600E; [5]): 33%
inhibition at 2 µM (B-Raf^V600E; [5]): 69%
inhibition at 2 µM (B-Raf^WT): 15%
inhibition at 10 µM [2]: 9%

Cc1ccc(-c2ccc(C=C3C(=O)NC(=S)NC3=O)o2)cc1 [Compound 22g, 5-[5-(4-methyl-phenyl)-furan-2ylmethylene]-2-thioxo-dihydro-pyrimidine-4,6-dione]
inhibition at 10 µM [1]: 84%
Tumor growth inhibition rate A375(B-Raf^V600E) ([1]; 10 µM): potent growth inhibition activity; also recorded: virtually complete growth inhibition
inhibition at 0.5 µM (B-Raf^V600E; [5]): 50%
inhibition at 2 µM (B-Raf^V600E; [5]): 59%
inhibition at 2 µM (B-Raf^WT): 17%
inhibition at 10 µM [2]: 3.6%

COc1ccc(-c2ccc(C=C3C(=O)NC(=S)NC3=O)o2)cc1 [Compound 22h, 5-[5-(4-methoxy-phenyl)-furan-2ylmethylene]-2-thioxo-dihydro-pyrimidine-4,6-dione]
inhibition at 10 µM [1]: 94.4%
Tumor growth inhibition rate A375(B-Raf^V600E) ([1]; 10 µM): potent growth inhibition activity; also recorded: virtually complete growth inhibition
IC50 (B-Raf^V600E): 2690 nM
IC50 (B-Raf^WT): 3690 nM
inhibition at 10 µM [2]: 13%

O=C1NC(=S)NC(=O)C1=Cc1ccc(-c2ccc3ccccc3c2)o1 [Compound 22j, 5-[5-(2-naphthyl)-furan-2ylmethylene]-2-thioxo-dihydro-pyrimidine-4,6-dione]
inhibition at 10 µM [1]: 6.9%
IC50 (B-Raf^V600E): 1070 nM
IC50 (B-Raf^WT): 1930 nM

O=C1NC(=S)NC(=O)C1=Cc1ccc(-c2cc(C(F)(F)F)ccc2Cl)o1 [Compound 22k, 5-[5-(2-chloro-5-trifluomethyl)-furan-2ylmethylene]-2-thioxo-dihydro-pyrimidine-4,6-dione]
Tumor growth inhibition rate A375(B-Raf^V600E) [1]: 18.3

O=C1NC(=S)NC(=O)C1=Cc1ccc(-c2cccc(C(F)(F)F)c2)o1 [Compound 22l, 5-[5-(3-trifluomethyl-phenyl)-furan-2ylmethylene]-2-thioxo-dihydro-pyrimidine-4,6-dione]
Inhibition rate B-Raf^V600E (B-Raf^V600E): 45%
Inhibition rate B-Raf (B-Raf^WT): 30%

O=C1NC(=S)NC(=O)C1=Cc1ccc(-c2ccc(Cl)cc2[N+](=O)[O-])o1 [Compound 22n, 5-[5-(2-nitro-4-chloro)-furan-2ylmethylene]-2-thioxo-dihydro-pyrimidine-4,6-dione]
Inhibition rate B-Raf^V600E (B-Raf^V600E): 22%
Inhibition rate B-Raf (B-Raf^WT): 20%

O=C1NC(=S)NC(=O)C1=Cc1ccc(-c2ccc(Cl)cc2C(F)(F)F)o1 [Compound 22o, 5-[5-(2-trifluomethyl-4-chloro)-furan-2ylmethylene]-2-thioxo-dihydro-pyrimidine-4,6-dione]
Inhibition rate B-Raf^V600E (B-Raf^V600E): 49%
Inhibition rate B-Raf (B-Raf^WT): 24%

O=C1NC(=S)NC(=O)C1=Cc1ccc(-c2ccc(Cl)c(C(F)(F)F)c2)o1 [Compound 22p, 5-[5-(3-trifluomethyl-4-chloro)-furan-2ylmethylene]-2-thioxo-dihydro-pyrimidine-4,6-dione]
Inhibition rate B-Raf^V600E (B-Raf^V600E): 48%
Inhibition rate B-Raf (B-Raf^WT): 37%

Source: paper PMC3427755 (Organic & biomolecular chemistry, 2012)
